The values that follow are results of earlier work, collected in US20240315991A1, “USES OF HNF4 ALPHA AGONISTS” (Sanford Burnham Prebys Medical Discovery Institute, priority 2023, published 2024).

The target in data set [1] is T1, HNF4α (Homo sapiens, UniProt P41235).
T1 sequence (P41235 1-474): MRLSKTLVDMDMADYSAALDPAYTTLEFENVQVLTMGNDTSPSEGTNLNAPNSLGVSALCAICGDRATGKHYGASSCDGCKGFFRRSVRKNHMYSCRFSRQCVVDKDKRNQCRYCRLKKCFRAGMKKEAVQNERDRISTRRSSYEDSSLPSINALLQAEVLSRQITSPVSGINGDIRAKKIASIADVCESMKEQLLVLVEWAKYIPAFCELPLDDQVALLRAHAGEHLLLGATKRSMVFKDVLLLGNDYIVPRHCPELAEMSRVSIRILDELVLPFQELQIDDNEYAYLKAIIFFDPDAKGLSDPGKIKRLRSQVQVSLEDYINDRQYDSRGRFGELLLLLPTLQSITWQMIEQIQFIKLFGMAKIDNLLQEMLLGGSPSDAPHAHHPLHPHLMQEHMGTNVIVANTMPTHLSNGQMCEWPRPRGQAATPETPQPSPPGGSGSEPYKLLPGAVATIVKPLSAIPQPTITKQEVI
The settings on record: GFP expressed under the control of the human insulin promoter; cited from earlier work.

For data set [2], the target named is T1, HNF4α. The settings on record: cited from earlier work.
For data set [3] the following is noted: cited from earlier work.

Take `CCN(CCCc1ccccc1)CCCc1ccccc1` [Alverine]: the “agonism of HNF4α” value at HNF4α [1] is “weak agonists”.

Turning to `CC(Cc1cccc(C(F)(F)F)c1)NCCOC(=O)c1ccccc1` (centres unmarked) [Benfluorex], the “agonism of HNF4α” value at HNF4α [1] is listed as “weak agonists”. For `COc1cc(/C=C/C(=O)NCCc2ccc(O)cc2)ccc1O` [NFT, N-trans feruloyltyramine, reference compound], the “specificity for HNF4α” value at HNF4α [2] (HNF4α siRNA ablates their effect) is “exhibit specificity for HNF4α”. Moreover, the “activation of HNF4α, potency compared with Alverine and Benfluorex” value on HNF4α [2] was “much more potent activators”. Besides, in data set [3], the oral bioavailability entry is “poor”.
